Measurements reported in patent US11844845B2, “Cell penetrating peptide, conjugate comprising same, and composition comprising conjugate” (GEMVAX & KAEL CO., LTD., priority 2012, dated 2023).

These sequences were tested on HeLa cell (assay: Cell penetration of pep(CPP)-FITC conjugate in HeLa cell line, flow cytometry (FACS)). Conditions: HeLa cells, 20 uM FITC-fused peptide, 37° C. for an hour, control = FITC only.
Type: cell-based, Homo sapiens
Procedure: Homo sapiens cervix adenocarcinoma cell line as HeLa cell lines were purchased from ATCC (American Type Cell Culture). The cells were cultured in MEM supplemented with 10% fetal bovine serum (Invitrogen, USA), Earle's salts, non-essential amino acids, sodium pyruvate and 100 μg/ml penicillin and 10 units/ml streptomycin and cultured at 37° C., 5% CO2 incubator.
Flow cytometry and Confocal microscope analysis were performed to compare the between degree of cellular uptake of the cells were treated with SEQ ID NO: 2 to SEQ ID NO: 178, pep (CPP) and control.
The cell line was divided in a 6-well plate and cultured in a medium containing 10% fetal bovine serum (Invitrogen, USA), 100 μg/ml penicillin, 100 units/ml streptomycin at 37° C. 5% CO2 incubator for 12 hours. After washing the cell line with PBS, starvation was induced in a Minimum Essential Medium for an hour. 20 uM of each carrier peptide was treated and cultured at 37° C. for an hour. After repeating the step of washing the cells with PBS for three times, Trypsin-EDTA was treated form 10 mins at 37° C. to separate the carrier peptide on the outside of the cell. cells were collected with refrigerated PBS and centrifugation was performed to repeat the step of washing the cells for three times. After then, the cells were suspended in 0.5 ml of PBS containing 4% Paraformaldehyde and fluorescence of the cells was analyzed using FACS Calibur (Becton Dickinson). The cellular uptake aspect of control and various peptides combined with FITC was compared and analyzed by MFI (Mean Fluorescence Intensity).
Analysis results shown in FIGS. 2 to 29 are given in detail in Table 7 below.

Row | Sequence | cellular uptake, MFI (Mean Fluorescence Intensity)
1 | TSRLRFIPK (listed as Homo sapiens) [Pep-RIA-97] | 13.68 ± 0.37
2 | VRQHREARPALLTSRLRFIPK (listed as Homo sapiens) [Pep-RIA-5] | 20.24 ± 0.34
3 | VRQHREARPALLTSRLRFIPKPDG (listed as Homo sapiens) [Pep-RIA-33] | 15.04 ± 0.68
4 | VRQHREARPALLTSRLRFIPKPDGL (listed as Homo sapiens) [Pep-RIA-34] | 16.37 ± 0.97
5 | VRQHREARPALLTSRLRFIPKPDGLR (listed as Homo sapiens) [Pep-RIA-35] | 13.22 ± 0.34
6 | VRQHREARPALLTSRLRFIPKPDGLRP (listed as Homo sapiens) [Pep-RIA-46] | 15.35 ± 0.92
7 | VRQHREARPALLTSRLRFIPKPDGLRPI (listed as Homo sapiens) [Pep-RIA-59] | 22.69 ± 0.66
